In PubChem BioAssay AID248 (DTP/NCI, 2004):
Toxic doses and inconclusive results are not listed. Rule as the data show it: active = T/C of 150% or more; inactive = T/C below 125%.

Test system: L1210 leukemia ip in BDF1 mice, survival T/C
Assay: NCI In Vivo Anticancer Drug Screen. Data for tumor model L1210 Leukemia (intraperitoneal) in B6D2F1 (BDF1) mice
Details: endpoint: mean survival time, higher = longer survival
Method in brief: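 Ratio derived from survival: compound-dosed mice over vehicle-dosed mice, all bearing a transplantable tumor.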

[1] = dose: 100.0 mg/kg/injection, schedule: Q01DX001 (ip), vehicle: carboxymethylcellulose (CMC)
[2] = dose: 400.0 mg/kg/injection, schedule: Q01DX001 (ip), vehicle: carboxymethylcellulose (CMC)
[3] = dose: 75.0 mg/kg/injection, schedule: Q01DX001 (ip), vehicle: saline
[4] = dose: 100.0 mg/kg/injection, schedule: Q01DX001 (ip), vehicle: saline
[5] = dose: 100.0 mg/kg/injection, schedule: Q01DX009 (ip), vehicle: saline
[6] = dose: 200.0 mg/kg/injection, schedule: Q01DX001 (ip), vehicle: saline
[7] = dose: 200.0 mg/kg/injection, schedule: Q01DX009 (ip), vehicle: saline
[8] = dose: 400.0 mg/kg/injection, schedule: Q01DX001 (ip), vehicle: saline
[9] = dose: 100.0 mg/kg/injection, schedule: Q04DX003 (ip), vehicle: saline
[10] = dose: 200.0 mg/kg/injection, schedule: Q04DX003 (ip), vehicle: saline
[11] = dose: 400.0 mg/kg/injection, schedule: Q04DX003 (ip), vehicle: saline
[12] = dose: 100.0 mg/kg/injection, schedule: Q01DX009 (ip), vehicle: Klucel (hydroxypropylcellulose) (HPC)
[13] = dose: 200.0 mg/kg/injection, schedule: Q01DX009 (ip), vehicle: Klucel (hydroxypropylcellulose) (HPC)
[14] = dose: 400.0 mg/kg/injection, schedule: Q01DX009 (ip), vehicle: Klucel (hydroxypropylcellulose) (HPC)
[15] = dose: 100.0 mg/kg/injection, schedule: Q04DX003 (ip), vehicle: Klucel (hydroxypropylcellulose) (HPC)
[16] = dose: 200.0 mg/kg/injection, schedule: Q04DX003 (ip), vehicle: Klucel (hydroxypropylcellulose) (HPC)
[17] = dose: 400.0 mg/kg/injection, schedule: Q04DX003 (ip), vehicle: Klucel (hydroxypropylcellulose) (HPC)
[18] = dose: 100.0 mg/kg/injection, schedule: Q01DX001 (ip), vehicle: saline with Tween-80
[19] = dose: 100.0 mg/kg/injection, schedule: Q01DX009 (ip), vehicle: saline with Tween-80
[20] = dose: 100.0 mg/kg/injection, schedule: Q04DX003 (ip), vehicle: saline with Tween-80
[21] = dose: 200.0 mg/kg/injection, schedule: Q01DX001 (ip), vehicle: saline with Tween-80
[22] = dose: 200.0 mg/kg/injection, schedule: Q01DX009 (ip), vehicle: saline with Tween-80
[23] = dose: 200.0 mg/kg/injection, schedule: Q04DX003 (ip), vehicle: saline with Tween-80
[24] = dose: 400.0 mg/kg/injection, schedule: Q01DX001 (ip), vehicle: saline with Tween-80
[25] = dose: 400.0 mg/kg/injection, schedule: Q01DX009 (ip), vehicle: saline with Tween-80
[26] = dose: 400.0 mg/kg/injection, schedule: Q04DX003 (ip), vehicle: saline with Tween-80

Measured: T/C

CCOC(=O)CN1CCC(C(=O)OCC)CC1
inactive: dose: 50.0 mg/kg/injection, schedule: Q01DX001 (ip), vehicle: carboxymethylcellulose (CMC) 106 % of control | [1] 97 % of control | dose: 200.0 mg/kg/injection, schedule: Q01DX001 (ip), vehicle: carboxymethylcellulose (CMC) 103 % of control | [2] 106 % of control

O=C(O)CCC1(CCC(=O)O)OCCO1.[Ag]
inactive: dose: 9.38 mg/kg/injection, schedule: Q01DX001 (ip), vehicle: other 97 % of control | dose: 18.75 mg/kg/injection, schedule: Q01DX001 (ip), vehicle: other 97 % of control | dose: 37.5 mg/kg/injection, schedule: Q01DX001 (ip), vehicle: other 100 % of control

C1CC2CCCC(C1)S2
inactive: [3] 102 % of control | dose: 150.0 mg/kg/injection, schedule: Q01DX001 (ip), vehicle: saline 100 % of control | dose: 300.0 mg/kg/injection, schedule: Q01DX001 (ip), vehicle: saline 96 % of control

CS(=O)(=O)C(=C(N1CCCCC1)N1CCCCC1)S(=O)(=O)Cc1ccccc1
inactive: [4] 100 % of control | [5] 88 % of control | [6] 96 % of control | [7] 93 % of control | [8] 96 % of control

c1ccc(Cn2nnc(-c3ccccc3)n2)cc1
inactive: [9] 97 % of control | [10] 94 % of control | [11] 89 % of control

O=[N+]([O-])c1ccccc1S(=O)(=O)Nc1ccccc1F
inactive: [12] 105 % of control | [13] 100 % of control | [14] 101 % of control

O=C(NCCc1nc(C(=O)O)cs1)c1ccccc1
inactive: dose: 100.0 mg/kg/injection, schedule: Q01DX001 (ip), vehicle: other 98 % of control | dose: 100.0 mg/kg/injection, schedule: Q01DX009 (ip), vehicle: gum acacia 99 % of control | dose: 100.0 mg/kg/injection, schedule: Q04DX003 (ip), vehicle: gum acacia 103 % of control | dose: 200.0 mg/kg/injection, schedule: Q01DX001 (ip), vehicle: other 101 % of control | dose: 200.0 mg/kg/injection, schedule: Q04DX003 (ip), vehicle: gum acacia 98 % of control | dose: 400.0 mg/kg/injection, schedule: Q01DX001 (ip), vehicle: other 102 % of control | dose: 400.0 mg/kg/injection, schedule: Q04DX003 (ip), vehicle: gum acacia 97 % of control

O=C(Nc1ccc([N+](=O)[O-])cc1Cl)Oc1cccc2ccccc12
inactive: [12] 96 % of control | [15] 105 % of control | [13] 96 % of control | [16] 105 % of control | [14] 102 % of control | [17] 105 % of control

CCOC(=O)CNCc1cccnc1
inactive: [5] 97 % of control | [9] 95 % of control | [7] 94 % of control | [10] 87 % of control | dose: 400.0 mg/kg/injection, schedule: Q01DX009 (ip), vehicle: saline 95 % of control | [11] 102 % of control

CC1=N/C(=N\c2nc3cc(C)c(C)cc3[nH]2)NC(=O)CC1
inactive: [3] 104 % of control

N#C/C(=C/c1c(Cl)cccc1Cl)C(N)=O
inactive: [3] 93 % of control

S=C(NCc1ccccc1)[S][Sb]([S]C(=S)NCc1ccccc1)[c]1ccccc1
inactive: dose: 5.0 mg/kg/injection, schedule: Q01DX001 (ip), vehicle: saline 88 % of control | dose: 10.0 mg/kg/injection, schedule: Q01DX001 (ip), vehicle: saline 109 % of control

CCCCN(CC)/N=N/c1nc[nH]c1C(N)=O
inactive: [18] 95 % of control | [19] 117 % of control | [20] 94 % of control | [21] 101 % of control | [22] 124 % of control | [23] 110 % of control | [24] 116 % of control | [25] 88 % of control | [26] 103 % of control

COC(=O)c1c(I)cccc1[N+](=O)[O-]
inactive: [12] 92 % of control | [15] 97 % of control | [13] 91 % of control | [16] 103 % of control | [14] 96 % of control | [17] 97 % of control

O=C(CCCC(=O)N/N=C/c1cc(Br)cc(Br)c1)N/N=C\c1cc(Br)cc(Br)c1
inactive: dose: 50.0 mg/kg/injection, schedule: Q01DX001 (ip), vehicle: saline 96 % of control | [4] 98 % of control | [6] 96 % of control | [8] 90 % of control

CC(C)OC(=O)Nc1ccc(Cl)cn1
inactive: [15] 103 % of control | [16] 101 % of control | [17] 95 % of control

CN(Cc1cnc(N)nc1N)c1ccc(C(=O)O)cc1
inactive: [1] 90 % of control | [2] 92 % of control

CCCCSc1nc2ccccc2[nH]1
inactive: [18] 93 % of control | [20] 93 % of control | [21] 104 % of control | [23] 97 % of control | [24] 104 % of control | [26] 100 % of control

Nc1ncnc(N)c1NC(=O)c1ccc(OCCOc2ccccc2)c(Cl)c1
inactive: dose: 25.0 mg/kg/injection, schedule: Q04DX003 (ip), vehicle: saline with Tween-80 89 % of control | dose: 50.0 mg/kg/injection, schedule: Q04DX003 (ip), vehicle: saline with Tween-80 93 % of control | [20] 98 % of control

O=NN1C(=O)N(CCCl)C(=O)C1(c1ccccc1)c1ccccc1
inactive: [9] 96 % of control | [10] 97 % of control | [11] 102 % of control

CCCNC(C)CC(=O)OCC (stereo not drawn)
inactive: dose: 100.0 mg/kg/injection, schedule: Q01DX Z (ip), vehicle: methylcellulose (MC) 96 % of control | dose: 200.0 mg/kg/injection, schedule: Q01DX Z (ip), vehicle: methylcellulose (MC) 94 % of control

O=[N+]([O-])c1ccc2ncsc2c1
inactive: [19] 98 % of control | [20] 112 % of control | [22] 98 % of control | [23] 102 % of control | [25] 98 % of control | [26] 104 % of control
